Where a SMILES comes first, the peptide text is derived from it.
Experiments:
[1] = tested on: pituitaries; test: In vitro growth hormone release study (incubated rat pituitaries, GH by RIA); format: cell-based; conditions: GH released at I3, I4 (I5) minus P2, mean ± SEM
Protocol: Female rats of the CD-1 strain were housed in a constant temperature room at 24° C. with 14 hours light and 10 hours darkness. The rats were fed Purina brand rat chow ab libitum. All studies were started between 0800 and 1000 hours.
Pituitaries were removed from 20 day old female rats. In each polytetrafluoroethylene beaker (10 ml) was incubated two pituitaries at 36° C. in 1 ml of lactated Ringer's solution in a Dubnoff Shaker (90 cycles/min.). All medium in each beaker was removed each hour (e.g., P1, P2, I3, I4, I5) and then fresh medium was added back to each beaker. Each medium removed was assayed for GH, in duplicate, by a standard radioimmunoassay (RIA).
The growth hormone agonist of Example 1 was not added to the incubation mediums employed during the first hour of the incubation period (P1) or to the incubation mediums employed during the second hour of the incubation period (P2). The growth hormone agonist of Example 1 was dissolved in dimethylsulfoxide (DMSO; 10:1, agonist:DMSO), added to each incubation medium employed during the third hour of the incubation period (I3), to each medium employed during the fourth hour of the incubation period (I4), and, when performed, to each medium employed during the fifth hour of the incubation period (I5). The release of growth hormone was recorded as ΔGH and calculated by subtracting the amount of GH released at P2 from that released at I3, I4, and, when performed, I5. The agonist activity was determined from the release at I3, I4, and, when performed, I5. The mean of the ΔGH values obtained from the three beakers per dosage level measured at I3, I4, and, when performed, I5 are set forth in Table VI.

[2] = tested on: Female rats of The CD-1 strain; test: In vivo growth hormone release study (subcutaneous injection, serum GH by RIA); design: species or system rat; conditions: serum GH about 15 minutes after injection, 21 day old female rats, mean ± SEM
Protocol: Female rats of The CD-1 strain were housed in a constant temperature room at 24° C. with 14 hours light and 10 hours darkness. The rats were fed Purina brand rat chow ab libitum. All studies were started between 0800 and 1000 hours. Each female rat (21 days old; eight rats per dosage level shown in Table XXVI) was injected subcutaneously with a desired dosage of the peptide of Example 6. Approximately 15 minutes after injection, the rat was guillotined. A blood sample was collected from the guillotined rat. The blood sample was centrifuged and a serum sample was collected therefrom. Each serum sample was assayed for GH, in duplicate, by a standard radioimmunoassay (RIA).

[3] = dosage 1 ng/ml incubation medium
[4] = dosage 3 ng/ml incubation medium
[5] = dosage 10 ng/ml incubation medium
[6] = dosage 30 ng/ml incubation medium
[7] = dosage 1.0 μg/ml serum (so in the source)
[8] = dosage 3.0 μg/ml serum (so in the source)
[9] = dosage 10.0 μg/ml serum (so in the source)
[10] = dosage 30.0 μg/ml serum (so in the source)
[11] = dosage 0.3 μg/ml serum (so in the source)

C[C@H](NC(=O)[C@@H](Cc1c[nH]c2ccccc12)NC(=O)[C@@H](N)Cc1c[nH]cn1)C(=O)N[C@@H](Cc1c[nH]c2ccccc12)C(=O)N[C@H](Cc1ccccc1)C(=O)N[C@@H](CCC(=O)O)C(N)=O [H2 -His-D-Trp-Ala-Trp-D-Phe-Glu-NH2] (HELM PEPTIDE1{H.[dW].A.W.[dF].E.[am]}$$$$V2.0)
ΔGH [1, 3]: -78 ± 72 ng/ml incubation medium | ΔGH [1, 4]: -294 ± 75 ng/ml incubation medium | ΔGH [1, 5]: -243 ± 71 ng/ml incubation medium | ΔGH [1, 6]: 117 ± 41 ng/ml incubation medium | ΔGH [2, 7]: 0.10 ± 0 ng/ml subcutaneous | ΔGH [2, 8]: 1.50 ± 0.56 ng/ml subcutaneous | ΔGH [2, 9]: 1.4 ± 0.78 ng/ml subcutaneous | ΔGH [2, 10]: 8.06 ± 2.68 ng/ml subcutaneous

C[C@H](NC(=O)[C@@H](Cc1c[nH]c2ccccc12)NC(=O)[C@@H](N)Cc1c[nH]cn1)C(=O)N[C@@H](Cc1c[nH]c2ccccc12)C(=O)N[C@H](Cc1ccccc1)C(=O)N[C@@H](CCCCN)C(N)=O [H2 -His-D-Trp-Ala-Trp-D-Phe-Lys-NH2] (HELM PEPTIDE1{H.[dW].A.W.[dF].K.[am]}$$$$V2.0)
ΔGH [1, 3]: 955 ± 272 ng/ml incubation medium | ΔGH [1, 4]: 1,603 ± 305 ng/ml incubation medium | ΔGH [1, 5]: 2,244 ± 173 ng/ml incubation medium | ΔGH [1, 6]: 2,198 ± 358 ng/ml incubation medium | ΔGH [2, 11]: 6 ± 4 ng/ml subcutaneous | ΔGH [2, 7]: 36 ± 15 ng/ml subcutaneous | ΔGH [2, 8]: 66 ± 15 ng/ml subcutaneous | ΔGH [2, 9]: 100 ± 19 ng/ml subcutaneous | ΔGH [2, 10]: 122 ± 4 ng/ml subcutaneous

H2 -3-N-Me-His-D-Trp-Ala-Trp-D-Phe-Lys-NH2
ΔGH [1, 3]: 165 ± 136 ng/ml incubation medium | ΔGH [1, 5]: 1,857 ± 254 ng/ml incubation medium | ΔGH [2, 11]: 45.0 ± 10 ng/ml subcutaneous | ΔGH [2, 9]: 128 ± 16 ng/ml subcutaneous

H2 -His-D-Trp-Ala-Trp-D-Phe-Lys-NHCH2 CH3
ΔGH [1, 3]: 726 ± 115 ng/ml incubation medium | ΔGH [1, 5]: 1,688 ± 300 ng/ml incubation medium | ΔGH [2, 11]: 13.0 ± 5 ng/ml subcutaneous | ΔGH [2, 9]: 119 ± 12 ng/ml subcutaneous

H2 -His-D-Trp-Ala-Trp-D-Phe-Lys-OH
ΔGH [1, 3]: 467 ± 178 ng/ml incubation medium | ΔGH [1, 5]: 330 ± 167 ng/ml incubation medium | ΔGH ([1]; dosage 100 ng/ml incubation medium): 2,441 ± 353 ng/ml incubation medium | ΔGH [2, 8]: 76 ± 24 ng/ml subcutaneous | ΔGH [2, 9]: 119 ± 25 ng/ml subcutaneous | ΔGH [2, 10]: 226 ± 43 ng/ml subcutaneous
